The record followed here is patent US8809372B2, “Pyridine derivatives” (Endo Pharmaceuticals, Inc., priority 2011, dated 2014).

Assay [1] addresses T1, rat CYP17 (rat testicular microsomes) (Rattus norvegicus, UniProt P11715).
T1 construct: Rat testis tissue was collected and disrupted with 30 strokes of a glass homogenizer; from tissue; host or cells: rat testis (microsomes)
T1 sequence (P11715 1-507): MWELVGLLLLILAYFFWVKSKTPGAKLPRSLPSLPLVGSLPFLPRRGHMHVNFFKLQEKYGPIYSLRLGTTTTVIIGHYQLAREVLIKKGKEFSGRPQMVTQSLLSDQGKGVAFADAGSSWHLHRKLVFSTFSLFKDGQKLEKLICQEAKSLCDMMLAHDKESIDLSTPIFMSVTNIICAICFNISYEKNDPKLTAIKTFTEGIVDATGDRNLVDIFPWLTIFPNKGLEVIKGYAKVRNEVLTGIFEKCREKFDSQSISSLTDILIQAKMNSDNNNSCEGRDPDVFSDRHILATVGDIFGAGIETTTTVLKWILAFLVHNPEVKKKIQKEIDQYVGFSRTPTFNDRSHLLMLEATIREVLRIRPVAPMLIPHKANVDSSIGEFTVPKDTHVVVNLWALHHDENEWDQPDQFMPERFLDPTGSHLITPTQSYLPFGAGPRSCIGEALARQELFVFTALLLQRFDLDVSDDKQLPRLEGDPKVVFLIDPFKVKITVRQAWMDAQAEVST
Nature of the assay: CYP17 inhibition assay in rat testicular microsomes. Format: biochemical. On the procedure: CYP17 Inhibition Assay in Rat Testicular Microsomes (Rat CYP17) or Yeast Microsome Overexpressing Human CYP17
1. NADPH (Sigma): A working stock was prepared by adding 25 μL of 6.5 mM NADPH in each tube. The final concentration of NADPH used in the assay was 325 μM.
2. Potassium Phosphate Buffer: One molar (1M) solutions of K2HPO4 and KH2PO4 were prepared. Eight mL of the 1 M KH2PO4 and 1.98 mL of the 1 M K2HPO4 were combined and the pH was adjusted to 7.4.
3. ^3H3-17α-hydroxypregnenolone (American Radiolabeled Chemicals, Inc., stock 1 μCi/μL): A 1:1 dilution of ^3H3-17α-hydroxypregnenolone in ethanol was prepared by combining 100 μL ^3H3-17α-hydroxypregnenolone+100 μL ethanol for one complete 96 well plate. For the reaction, 2 μL of the diluted ^3H3-17α-hydroxypregnenolone was added in each tube, i.e., 1 μCi/reaction. 4. Microsome Isolation Buffer: The microsome isolation buffer was prepared by combining 250 mM Sucrose, 5 mM EDTA, 10 mM Tris HCl, 4 mM DTT, and adjusting to pH 7.4. 5. TEG Buffer: The TEG buffer was prepared by combining 50 mM Tris HCl, 1 mM EDTA, and 20% Glycerol. 6. Rat Testicular Microsomes: Rat testis tissue was collected and disrupted with 30 strokes of a glass homogenizer on ice with 250 μL of microsome isolation buffer, followed by centrifugation at 10,000 g for 10 minutes at 4° C. The supernatant was collected and centrifuged at 100,000 g for 45 minutes at 4° C. The pellet was dissolved in TEG Buffer and the protein was quantified. The homogenized microsome samples were then frozen at −80° C. • 7. Yeast Microsomes which overexpress the human CYP17 enzyme were obtained from Premas Biotech, India.
Potassium phosphate buffer (470 μL) was prepared as described above and was added to each well of a deep well plate. The test compound was diluted using a TECAN liquid handler and 5 μL of diluted compound was transferred to each well (96 deep well/1 mL). A solution (25 μL) of 6.5 mM NADPH was added (final concentration of 325 μM in the assay). ^3H3-17α-hydroxypregnenolone (2 μL of the working stock) was added to each tube. The plates were then pre-incubated for 15 minutes at 37° C. Following the pre-incubation, either 5 μL rat testicular microsomes (150-160 μg) or 5 μL of yeast microsomes expressing human CYP17 (1.7 pmol), was added. Incubation was at 37° C. for 60 minutes in the presence of oxygen. The plates were then placed in ice and chloroform (500 μL) was added, mixed well and incubated at 4° C. for 20 minutes. The plates were then centrifuged at 1000 rpm for 15 minutes at 4° C.
A portion (300 μL) of the aqueous solution was collected and mixed with a 5% aqueous suspension of activated charcoal (300 μL). The plates were then incubated at 4° C. for 30 minutes, after which the plates were centrifuged at 1000 rpm for 15 minutes at 4° C. From this, 125 μL of the aqueous solution was collected and plated into a 96 well plate. Microscint™ 40 [125 μL, Perkin-Elmer; containing a mixture of a polymer based on alkylphenolethoxylate (20-40%), diethanolamine-phosphoric acid ester ammonium salt (10-20%), sodium dioctyl sulphosuccinate (2.5-10%), triethyl phosphate (2.5-10%), 3,6-dimethyl-4-octyne-3,6-diol (≦2.5%), a polymer based on nonylphenolethoxylate (≦2.5%), diisopropyl naphthalene isomers (40-60%), 2,5-diphenyloxazole (≦2.5%), and 9,10-dimethylanthracene] was added and mixed well. After 30 minutes of incubation, the samples were analyzed with a MicroBeta® Trilux microplate liquid scintillation counter and luminometer (Perkin-Elmer).

The target in assay [2] is T2, human CYP17 in H295R adrenocortical carcinoma cells (Homo sapiens, UniProt P05093).
T2 construct: H295R Adrenocortical carcinoma cells [NCI-H295A, ATCC Number CRL-2128, American Type Culture Collection; host or cells: H295R adrenocortical carcinoma cells
T2 sequence (P05093 1-508): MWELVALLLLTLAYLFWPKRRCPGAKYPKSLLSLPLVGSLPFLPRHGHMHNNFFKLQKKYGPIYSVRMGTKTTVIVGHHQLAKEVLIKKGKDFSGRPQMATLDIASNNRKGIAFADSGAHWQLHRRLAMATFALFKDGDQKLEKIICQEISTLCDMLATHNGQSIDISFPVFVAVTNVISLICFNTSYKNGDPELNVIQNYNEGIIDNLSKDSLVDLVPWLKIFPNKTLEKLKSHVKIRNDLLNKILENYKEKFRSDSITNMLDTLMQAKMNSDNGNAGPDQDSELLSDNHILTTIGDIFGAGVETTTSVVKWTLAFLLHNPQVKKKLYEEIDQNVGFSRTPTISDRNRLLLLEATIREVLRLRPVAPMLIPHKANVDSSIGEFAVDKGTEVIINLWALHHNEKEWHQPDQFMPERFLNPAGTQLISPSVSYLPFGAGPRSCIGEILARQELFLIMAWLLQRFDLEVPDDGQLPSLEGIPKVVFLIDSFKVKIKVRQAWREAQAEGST
The assay can be described thus: Cell-based human CYP17 inhibition assay, H295R cells. The following applies: 16 hours, read-out: CYP17 (human H295R adrenal cells). The method, then:
Cell-Based Human CYP17 Inhibition Assay
1. H295R Adrenocortical Carcinoma Cells and Growth Media: The media for the H295R Adrenocortical carcinoma cells [NCI-H295A, ATCC Number CRL-2128, American Type Culture Collection, Manassas, Va., US] (500 mL) was a DMEM:F12 Mix 1:1 with 5% (2 mL) BD Nu Serum; 1% (5 mL) ITS+Premix [BD Biosciences] and 1% Penstrep. 2. LNCap-CYP17 Cells and Growth Media: Full length hCYP17a1 gene (NCBI Reference Sequence: NM_000102.3) was cloned in pcDNA3.1(+) vector between HindIII and XhoI site. The pcDNA3.1(+) vector contains the Neomycin resistance gene and was used for selection of stable cell line. The hCYP17a1 containing pcDNA3.1(+) was transfected into LNCap cells to create the LNCap-CYP17 cell line. The media for the LNCaP-CYP17 cells was RPMI 1640, 10% FBS, 1% PenStrep, Geneticin 400 μg/mL.
The H295R cells or LNCaP-hCYP17 cells were subcultured and 30,000 cells per well were seeded in a poly-d lysine plate and incubated overnight at 37° C. The next day the media was removed and 200 μL of fresh media with ^3H3-17α-hydroxy-pregnenolone (1:1000) was added. 50 μL of serially diluted compounds from a 5× plate (5 times the final desired concentration) was added. The working concentration range for active, new compounds started from a high concentration of 10 μM with 3-fold serial dilutions generating up to 10 concentrations. The serial dilution in the 100× plate (in DMSO) and the stamping of a 5× plate (in media) from the 100× plate were carried out using a TECAN liquid handling device.
The plates were incubated overnight (16 hours) at 37° C. After 16 hours, the media was removed (approximately 220 μL) and an equal amount of chloroform was added, mixed and incubated for 30 minutes at 4 degrees. The plate was centrifuged at 4000 rpm for 15 minutes at 4° C., following which the top aqueous layer was carefully removed and added into a new deep well plate. An equal volume of activated 5% charcoal was added, mixed and incubated for 30 minutes at 4° C. The plate was then centrifuged at 4000 rpm for 15 minutes at 4° C. and the top layer carefully separated, avoiding any charcoal contamination, and placed in a white, clear bottom plate (plate cat #3610, Corning Life Sciences). An equal volume of Microscint™ 40 was added and mixed well. Following the incubation for 30 minutes, readings for the radiotracer were taken using a Microbeta® trilux.

Some results are limits rather than exact numbers.

In the case of `CCC(O)(c1ccncc1)c1cnc(-c2cn[nH]c2)s1` (centres unmarked) [Example 18, 1-(2-(1H-Pyrazol-4-yl)thiazol-5-yl)-1-(pyridin-4-yl)propan-1-ol], the IC50 in assay [1] and in assay [2] was < 50 nM each time.
In the case of `CCC(O)(c1ccncc1)c1nnc(-c2ccc(F)cc2)s1` (centres unmarked) [Example 21, 1-(5-(4-fluorophenyl)-1,3,4-thiadiazol-2-yl)-1-(pyridin-4-yl)propan-1-ol], the IC50 in assay [1] is < 50 nM; in assay [2], 201 to 10000 nM.
The matching figures for `CC(O)(c1ccncc1)c1cnc(-c2ccc(F)cc2)o1` (centres unmarked) [Example 23, 1-(2-(4-Fluorophenyl)oxazol-5-yl)-1-(pyridin-4-yl)ethanol]: < 50 nM and 201 to 10000 nM.
The like results for `OC(c1ccncc1)c1cnc(-c2ccc(F)cc2)s1` (centres unmarked) [Example 24, [2-(4-fluorophenyl)-1,3-thiazol-5-yl](pyridin-4-yl)methanol] were, in that order, < 50 nM and 50 to 200 nM.
The matching figures for `OC1(c2cnc(-c3ccc(F)cc3)s2)CCCc2cnccc21` (centres unmarked) [Example 25, 5-(2-(4-fluorophenyl)thiazol-5-yl)-5,6,7,8-tetrahydroisoquinolin-5-ol]: < 50 nM and 201 to 10000 nM.
As for `CC(O)(c1ccncc1)c1cnc(-c2ccc(C(F)(F)F)cc2)s1` (centres unmarked) [Example 26, 1-(Pyridin-4-yl)-1-(2-(4-(trifluoromethyl)phenyl)thiazol-5-yl)ethanol], the IC50 in assay [1] is < 50 nM; in assay [2], 50 to 200 nM.
The matching figures for `CC(O)(c1ccncc1)c1cnc(-c2ccc(F)cc2F)s1` (centres unmarked) [Example 27, 1-[2-(2,4-Difluoro-phenyl)-thiazol-5-yl]-1-pyridin-4-yl-ethanol]: < 50 nM and < 50 nM.
The like results for `CC(O)(c1ccncc1)c1cnc(-c2ccc(Cl)cc2)s1` (centres unmarked) [Example 28, 1-(2-(4-Chlorophenyl)thiazol-5-yl)-1-(pyridin-4-yl)ethanol] were, in that order, < 50 nM and < 50 nM.
The like results for `CC(O)(c1ccncc1)c1noc(-c2ccc(F)cc2)n1` (centres unmarked) [Example 29, 1-(5-(4-Fluorophenyl)-1,2,4-oxadiazol-3-yl)-1-(pyridin-4-yl)ethanol] were, in that order, < 50 nM and 201 to 10000 nM.
As to `CC(O)(c1ccncc1)c1cnc(-c2ccc(C#N)c(C(F)(F)F)c2)s1` (centres unmarked) [Example 30, 4-(5-(1-Hydroxy-1-(pyridin-4-yl)ethyl)thiazol-2-yl)-2-(trifluoro-methyl)benzonitrile], the results for the IC50 in assay [1] and in assay [2] were < 50 nM and 50 to 200 nM, respectively.
The matching figures for `CC(O)(c1ccncc1)c1nnc(-c2ccc(F)cc2)o1` (centres unmarked) [Example 31, 1-(5-(4-Fluorophenyl)-1,3,4-oxadiazol-2-yl)-1-(pyridin-4-yl)ethanol]: 50 to 200 nM and 201 to 10000 nM.
The like results for `CC(O)(c1ccncc1)c1cc(-c2ccc(F)cc2)no1` (centres unmarked) [Example 32, 1-[3-(4-Fluoro-phenyl)-isoxazol-5-yl]-1-pyridin-4-yl-ethanol] were, in that order, < 50 nM and 50 to 200 nM.
The matching figures for `CC(C)C(O)(c1ccncc1)c1cnc(-c2ccc(F)cc2)s1` (centres unmarked) [Example 33, 1-[2-(4-Fluoro-phenyl)-thiazol-5-yl]-2-methyl-1-pyridin-4-yl-propan-1-ol]: < 50 nM and < 50 nM.
Take `CC(O)(c1ccncc1)c1ccc(-c2ccc(F)cc2)o1` (centres unmarked) [Example 37, 1-(5-(4-fluorophenyl)furan-2-yl)-1-(pyridin-4-yl)ethanol]: the IC50 in assay [1] and in assay [2] was 50 to 200 nM each time.
Regarding `CC(O)(c1ccncc1)c1cnc(-c2ccc(C#N)c(Cl)c2)s1` (centres unmarked) [Example 38, 2-chloro-4-(5-(1-hydroxy-1-(pyridin-4-yl)ethyl)thiazol-2-yl)benzonitrile], the IC50 was < 50 nM in assay [1] and 50 to 200 nM in assay [2].
The matching figures for `CC(O)(c1ccncc1)c1cnc(-c2ccc(Cl)c(C(F)(F)F)c2)s1` (centres unmarked) [Example 39, 1-(2-(4-chloro-3-(trifluoromethyl)phenyl)thiazol-5-yl)-1-(pyridin-4-yl)ethanol]: < 50 nM and 50 to 200 nM.
